Results on eight compounds are retold here after ChEMBL document CHEMBL1201862, “PubChem BioAssay data set” (2004).

For experiment [1], the target named is Heat shock protein HSP 90-alpha (Homo sapiens, UniProt P07900). Kind of experiment: Luminescence-based dose response biochemical high throughput screening assay for inhibitors of the Heat Shock Protein 90 (HSP90). [Related pubchem assays: 1831 (Summary AID.), 1846 (Confirmation screen.), 1789 (Primary screen.)].
The target of experiment [2] is 5-hydroxytryptamine receptor 1E (Homo sapiens, UniProt P28566). Kind of experiment: Counterscreen assay for S1P3 antagonists: Dose response cell-based high throughput screening assay to identify antagonists of the 5-Hydroxytryptamine Receptor Subtype 1E (5HT1E). [Related pubchem assays: 1429, 485 ]. Type of experiment: functional. On the technique in general: Counterscreens check selectivity or assay interference.
5-hydroxytryptamine receptor 1E, sequence (P28566 whole entry): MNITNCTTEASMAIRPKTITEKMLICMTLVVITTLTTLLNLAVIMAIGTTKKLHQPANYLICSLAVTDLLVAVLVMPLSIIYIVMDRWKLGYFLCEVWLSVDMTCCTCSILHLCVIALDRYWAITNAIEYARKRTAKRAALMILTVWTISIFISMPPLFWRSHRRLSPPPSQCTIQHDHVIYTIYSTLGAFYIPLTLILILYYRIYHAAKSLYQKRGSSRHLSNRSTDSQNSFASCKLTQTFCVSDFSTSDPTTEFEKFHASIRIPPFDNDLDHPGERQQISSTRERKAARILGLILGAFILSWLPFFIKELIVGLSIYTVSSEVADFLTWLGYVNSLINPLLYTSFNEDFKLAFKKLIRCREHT

Experiment [3] concerns the target Sphingosine 1-phosphate receptor 3 (Homo sapiens, UniProt Q99500). Kind of experiment: Dose response cell-based high throughput screening assay for antagonists of the Sphingosine 1-Phosphate Receptor 3 (S1P3). [Related pubchem assays: 1429, 485 ]. Type of experiment: functional.
Experiment [4] in a line: Luminescence Cell-Based Dose Response to Identify Activators of 5'UTR Stem-Loop Driven Prion Protein mRNA Translation in H4-C Neuroglioblastoma Cells. [Related pubchem assays: 1829 (Project Summary), 1814 (Primary HTS)]. In kind it is functional.
A short description of experiment [5]: Luminescence Cell-Based Dose Confirmation HTS to Identify Activators of 5'UTR Stem-Loop Driven Alpha-Synuclein mRNA Translation in H4 Neuroglioblastoma Cells. [Related pubchem assays: 1829 (Project Summary), 1814 (Primary HTS)]. In kind it is functional.
Experiment [6] can be described thus: Luminescence Cell-Based Dose Response HTS to Identify Activators of Luciferase Translation or Activity in H4 […] Cells. [Related pubchem assays: 1829 (Project Summary), 1814 (Primary HTS)]. Type of experiment: functional.
The subject of another experiment is H4. Kind of experiment: Luminescence Cell-Based Dose Response HTS to Identify Activators of 5'UTR Stem-Loop Driven Prion Protein mRNA Translation in H4 Neuroglioblastoma Cells. [Related pubchem assays: 1829 (Project Summary), 1814 (Primary HTS)]. In kind it is functional. The settings on record: Homo sapiens.
The nature of experiment [7]: Luminescence Cell-Based Dose Response to Identify Activators of Luciferase Translation or Activity in H4-C Neuroglioblastoma Cells. [Related pubchem assays: 1829 (Project Summary), 1814 (Primary HTS)]. In kind it is functional.
Experiment [8] can be described thus: Luminescence Cell-Based Dose Confirmation to Identify Activators of 5'UTR Stem-Loop Driven Alpha-Synuclein mRNA Translation in H4 Neuroglioblastoma Cells. [Related pubchem assays: 1829 (Project Summary), 1814 (Primary HTS)]. Type of experiment: functional.
Experiment [9] in a line: HPDE-C7 pancreatic duct cell viability loss – fluorescence, HTS (AID 430). In kind it is functional, cell-based. The note with it: Homo sapiens.
A short description of experiment [10]: viability loss of HPDE-C7K cells – cell-based, fluorescence, HTS, primary screen (AID 431). Type of experiment: functional. The settings on record: Homo sapiens.
For a further experiment, the target named is Estrogen receptor beta (Homo sapiens, UniProt Q92731).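 Further: recombinant ER-beta bound to coactivator SRC1 peptide in presence of estradiol agonist; inhibitors block coactivator peptide binding and lower the FRET signal.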
Estrogen receptor beta, sequence (Q92731 whole entry): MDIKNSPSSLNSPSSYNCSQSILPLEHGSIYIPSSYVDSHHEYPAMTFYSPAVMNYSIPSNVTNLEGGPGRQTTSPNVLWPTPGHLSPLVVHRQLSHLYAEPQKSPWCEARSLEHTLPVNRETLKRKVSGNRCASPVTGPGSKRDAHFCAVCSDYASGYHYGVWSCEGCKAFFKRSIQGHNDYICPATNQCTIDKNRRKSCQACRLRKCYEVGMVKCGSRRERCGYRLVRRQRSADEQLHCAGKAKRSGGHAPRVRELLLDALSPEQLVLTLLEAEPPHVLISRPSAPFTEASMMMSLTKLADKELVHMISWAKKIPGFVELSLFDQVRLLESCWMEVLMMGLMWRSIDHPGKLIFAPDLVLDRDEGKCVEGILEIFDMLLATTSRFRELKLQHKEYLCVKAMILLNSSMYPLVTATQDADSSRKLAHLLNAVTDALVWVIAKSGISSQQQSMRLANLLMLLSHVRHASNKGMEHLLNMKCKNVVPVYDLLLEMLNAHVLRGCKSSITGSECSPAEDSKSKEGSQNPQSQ
Experiment [11] is described as follows: CellTiter-Glo luminescence survival assay, SW480 colon tumor line, concentration-response curve, half-maximal inhibitory concentration (AID 1117338). In kind it is functional.
A short description of experiment [12]: RKO cell viability reduction, dose response, CellTiter-Glo luminescence (AID 1117322). In kind it is functional. (In general: Cellular ATP, detected with luciferase, serves as a proxy for viable cell number.)
The nature of experiment [13]: cytotoxicity toward HCT116 cells – cell-based, CellTiter-Glo luminescence, IC50, dose response (AID 1117332). Type of experiment: functional. The settings on record: HCT-116.
Experiment [14] is described as follows: SNU-C1 cell viability reduction, dose response, CellTiter-Glo luminescence (AID 1117323). In kind it is functional, cell-based.
The nature of experiment [15]: cytotoxicity toward Colo320 cells – cell-based, CellTiter-Glo luminescence, IC50, dose response (AID 1117334). In kind it is functional. The settings on record: COLO 320.
Experiment [16] can be described thus: cytotoxicity toward HT-29 cells – cell-based, CellTiter-Glo luminescence, IC50, dose response (AID 1117330). In kind it is functional.
Experiment [17] is described as follows: Reduced DLD-1 viability, concentration-response, CellTiter-Glo luminescence (AID 1117352). Type of experiment: functional.

Calls of active or inactive are those of the source.

Sphingosine 1-phosphate receptor 3, sequence (Q99500 whole entry): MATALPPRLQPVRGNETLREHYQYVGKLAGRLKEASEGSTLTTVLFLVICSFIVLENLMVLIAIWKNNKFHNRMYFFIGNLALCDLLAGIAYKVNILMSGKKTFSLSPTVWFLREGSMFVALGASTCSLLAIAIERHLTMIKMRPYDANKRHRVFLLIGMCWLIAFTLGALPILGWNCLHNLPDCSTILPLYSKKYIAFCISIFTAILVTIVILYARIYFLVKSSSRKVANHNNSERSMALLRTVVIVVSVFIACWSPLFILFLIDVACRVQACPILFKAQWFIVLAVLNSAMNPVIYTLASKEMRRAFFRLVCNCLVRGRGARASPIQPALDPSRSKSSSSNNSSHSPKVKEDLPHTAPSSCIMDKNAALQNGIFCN

As for `CCCc1ccc(OCc2ccc(C(=O)N3CCSCC3)o2)cc1`, the IC50 in [1] was 0.904 µM (active).
Turning to `O=C(Nc1ccc(F)cc1F)c1c(C(F)(F)F)ccnc1Oc1ccc(Cl)cc1`, the IC50 in experiment [2] is > 50 µM (not active); in experiment [3], 4.29 µM (active).
For `O=C1c2ccccc2C(=O)c2c1ccc1c(O)n(-c3ccccc3)nc21`, the EC50 in experiment [4] was 0.563 µM (active); in [5], < 0.1 µM (active); in experiment [6], < 0.1 µM (active); in the experiment with H4, 59.2 µM (inconclusive); in experiment [7] it was 0.478 µM (active); in [8], 0.36 µM (active).
With `O=C(CSc1ncccc1C(=O)O)c1ccc2ccccc2c1`, the IC50 in experiment [1] is 0.391 µM (active).
On to `CCOC(=O)c1ccccc1NC(=O)c1c(F)c(F)c(F)c(F)c1F`, for which the EC50 is 15.7 µM (active) in [9] and 13.6 µM (active) in experiment [10].
Turning to `CCOc1ccccc1-c1nc(-c2cc3ccccc3nc2OC)no1`, at Estrogen receptor beta, the IC50 is given as > 50 µM (not active).
Consider `O=C(N/N=C/c1ccc(-c2ccc([N+](=O)[O-])cc2)o1)[C@H]1C[C@@H]1c1ccccc1`, for which the values for the IC50 in experiment [2] and in experiment [3] were 1.96 µM (active) and 3.03 µM (active), respectively.
Take `C/C(=C(/OCCOc1ccc(Cl)cc1)c1ccc(Cl)cc1Cl)n1ccnc1` [OMOCONAZOLE]: the IC50 was 8.46 µM (inactive) in [11]; > 6.67 µM (inactive) in [12]; > 6.67 µM (inactive) in [13]; 2.35 µM (active) in experiment [14]; 5.86 µM (inactive) in experiment [15]; > 6.67 µM (inactive) in experiment [16]. Besides, the IC50 in experiment [17] was 4.18 µM (active).

For orientation: IC50 means the concentration needed to halve the response being measured. In general, EC50 refers to the concentration needed to bring the measured effect to its halfway point.
